Tests used:
Format in all cases: cell-based, rat
[1] = test system: Oligodendrocyte/DRG co-cultures; assay: Oligodendrocyte/DRG co-culture myelination, MBP immunofluorescence
Method: Enriched populations of oligodendrocytes were grown from Female Long Evans post-natal day 2 (P2) rats. Briefly, the forebrain was dissected out and placed in Hank's buffered salt solution (HBSS) (Invitrogen, Grand Island, N.Y.). The tissue was cut into 1 mm fragments and incubated at 37° C. for 15 min in 0.01% trypsin and 10 μg/ml DNase. Dissociated cells were plated on poly-L-lysine-coated T75 tissue culture flasks and grown at 37° C. for 10 days in DMEM medium with 20% fetal calf serum (Invitrogen). Oligodendrocyte precursors (A2B5+) were collected by shaking the flask overnight at 200 rpm at 37° C., resulting in a 95% pure population. Cultures were maintained in high glucose DMEM medium containing FGF/PDGF (Peprotech) (10 ng/ml) for 1 week.
DRG cultures were prepared as follows. Embryonic dorsal root ganglia (DRG) neurons were grown in vitro as previously described in Mi et al., Nat. Neurosci. 8:745-51 (2005) and Kleitman et al. “Tissue culture methods for the study of myelination.” Culturing Nerve Cells. Banker and Goslin, eds. Cambridge Mass.: MIT Press, 337-377 (1991). Briefly, dorsal root ganglia, dissected from embryonic day 15 (E15) Long Evans rats, were plated on poly-D-lysine (100 μg/ml)-coated cover slips for 2 weeks and grown in Neurobasal medium supplemented with B27 (Invitrogen) in the presence or absence of 100 ng/ml nerve growth factor (BD Biosciences). To remove proliferating glial cells, the cultures were pulsed twice with fluorodeoxyuridine (20 μM) from days 2-6 and from days 8-10.
Oligodendrocyte-DRG co-cultures were prepared as follows. A2B5+ oligodendrocyte progenitor cells and DRG neuron drop cultures were prepared as above. One day after oligodendrocyte progenitors were added to DRG neurons, co-cultures were infected with lentivirus expressing GFP (control), dominant-negative Sp35 or full length Sp35 at 2 MOI per cell. DNA sequences used for lentiviral construction were, mouse Sp35 full length (FL-Sp35, encoding amino acid residues 34-614), Sp35 dominant negative (DN-Sp35, encoding amino acid residues 34-581). DNA sequences were inserted into the NotI and BamHI sites of HRST-IRESeGFP lentivirus vector. Plasmids were transfected into 293FT cells to produce lentivirus as described in Rubinson et al. Nat. Genetics 33:401-406 (2003).
Oligodendrocyte/DRG co-cultures were prepared as described in Example 3. The co-cultures were treated with increasing concentrations of Sp35-Fc or control-Fc for 3 weeks. Monoclonal antibodies against MBP were used to determine MBP protein concentration and for immunofluorescence experiments (Sternberger Monoclonals). […]

Sp35 [2] = assay: Sp35 expression in co-cultures, DRG neuronal and oligodendrocyte cultures treated with NGF
Method: Oligodendrocyte—DRG co-cultures were prepared as described previously. Various concentrations of NGF (0, 10, 50 and 100 ng/ml) were added to oligodendrocyte—DRG co-cultures, DRG neuronal cultures and oligodendrocyte cultures. In all cultures expression of Sp35 and phosphorylated TrkA was examined by […] or immuno-histochemical staining.

Sp35 [3] = assay: RT-PCR for Sp35 in purified DRGs with or without NGF; conditions: 100 ng/ml NGF for 24 hours; FIG. 9A
Method: RT-PCR for TrkA, Sp35 and GAPDH was performed on purified OPCs, SCs and DRGs in the presence or absence of NGF or BDNF as follows. Cultures of OPCs, SCs and DRGs were prepared as described above. Wells of the tissue culture dishes were treated with either 100 ng/ml of NGF or 100 ng/ml of BDNF for 24 hours prior to mRNA isolation. Cellular mRNA was extracted using the Absolutely RNA miniprep kit (Stratagene). Equal amounts of mRNA were subjected to RT-PCR. The primer sets used for the PCR reactions are as follows: […]

[4] = test system: DRG-oligodendrocyte co-cultures; assay: DRG-oligodendrocyte co-culture myelination, Western blot for MBP and MAG; conditions: FIG. 7
Text: CNS myelination in the presence of NGF and either an Sp35 antagonist (Sp35-DN) or a TrkA antagonist (TrkA-DN) was examined. 3 week old DRG and oligodendrocyte cocultures (prepared as described in Example 3) were infected with lentiviruses, at an MOI of 2 per cell, expressing either full-length or dominant negative Sp35, full-length or dominant negative Nogo Receptor, full-length or dominant negative Taj, full-length or dominant negative p75, and full-length or dominant negative TrkA. Lentiviruses were prepared as described in Example 3 and as follows. Rat p75 full length (FL-p75, amino acid residues 1-425), p75 dominant negative (DN-p75, amino acid residues 1-275), human TrkA full length (FL-TrkA, amino acid residues 1-796), TrkA dominant negative (DN-TrkA, amino acid residues 1-441), human Taj full length (FL-Taj, amino acid residues 1-417), Taj dominant negative (DN-Taj, amino acid residues 1-192), rat Nogo receptor full length (FL-NgR, amino acid residues 1-473), Nogo receptor dominant negative (DN-NgR, amino acid residues 28-310). DNA sequence was inserted into the NotI and BamHI sites of HRST-IRESeGFP lentivirus vector. Plasmids were transfected into 293 cells to produce lentivirus as described in Rubinson et al. Nat. Genetics 33:401-406 (2003).
Co-culture lysates were examined at 3 weeks and analyzed by Western blot as described previously. The blots were probed with polyclonal antibodies to MAG and to MBP. The myelin proteins MAG and MBP were used as markers for myelination.
The TrkA compound antagonist K525a was also tested in DRG-oligodendrocyte cocultures for its ability to promote myelination.
The myelin proteins MAG and MBP were used to determine whether TrkA was upstream of Sp35 in inhibiting myelination in DRG-oligodendrocyte co-cultures. Oligodendrocyte-DRG co-cultures were prepared as described in Example 3. […]
Fresh media was changed every three days. […] Lysates were subjected to 4-20% SDS-PAGE, and analyzed by Western blotting with an antibody to MBP, MAG and Sp35. […]

Molecule: NGF: Nerve Growth Factor, the TrkA ligand
- myelination in co-culture ([1]; in the presence of NGF): inhibited
- Sp35 in DRG neurons by immunofluorescence (Sp35 [2]; 100 ng/ml of NGF, FIG. 10): Upregulation
- Sp35 expression in oligodendrocyte/DRG cocultures (Sp35 [2]; NGF 0, 10, 50 and 100 ng/ml, FIG. 8): increased
- Sp35 expression in cultured oligodendrocytes (Sp35 [2]; NGF 0, 10, 50 and 100 ng/ml, FIG. 9): remained constant
- Sp35 mRNA in DRGs (Sp35 [3]): induction

Molecule: COC(=O)[C@@]1(O)C[C@H]2O[C@]1(C)n1c3ccccc3c3c4c(c5c6ccccc6n2c5c31)C(=O)NC4 [K525a]
- myelination, as measured by the presence of MBP ([4]; concentration 1 nM): promoted myelination
- myelination, as measured by the presence of MBP ([4]; concentration 3 nM): promoted myelination

B1: Sp35-Fc: extra-cellular portion of human Sp35 (residues 1-532) fused to the hinge and Fc region of human IgG1 (protein)
chain: TGCPPRCECSAQDRAVLCHRKRFVAVPEGIPTETRLLDLGKNRIKTLNQDEFASFPHLEELELNENIVSAVEPGAFNNLFNLRTLGLRSNRLKLIPLGVFTGLSNLTKLDISENKIVILLDYMFQDLYNLKSLEVGDNDLVYISHRAFSGLNSLEQLTLEKCNLTSIPTEALSHLHGLIVLRLRHLNINAIRDYSFKRLYRLKVLEISHWPYLDTMTPNCLYGLNLTSLSITHCNLTAVPYLAVRHLVYLRFLNLSYNPISTIEGSMLHELLRLQEIQLVGGQLAVVEPYAFRGLNYLRVLNVSGNQLTTLEESVFHSVGNLETLILDSNPLACDCRLLWVFRRRWRLNFNRQQPTCATPEFVQGKEFKDFPDVLLPNYFTCRRARIRDRKAQQVFVDEGHTVQFVCRADGDPPPAILWLSPRKHLVSAKSNGRLTVFPDGTLEVRYAQVQDNGTYLCIAANAGGNDSMPAHLHVRSYSPDWPHQPNKTFAFISNQPGE
modifications: left off: a dimerising Fc or GST
notes: extra-cellular portion of human Sp35 (residues 1-532) fused to the hinge and Fc region of human IgG1
- MBP positive oligodendrocytes and myelin internodes ([1]; 100 ng/ml NGF, 14 days, compared to controls, FIG. 13): enhancement
- number of MBP+ oligodendrocytes ([1]; co-culture in the presence of NGF, treated 3 weeks, vs control-Fc, FIG. 5): increased
- number of MBP+ cells, dependence on concentration ([1]; increasing concentrations of Sp35-Fc, 3 weeks, NGF present, FIG. 5C): increased as the concentration of the Sp35 antagonist increased
- myelination, as measured by the presence of MBP ([4]; Sp35-Fc as comparator for K525a): promoted myelination

Source: US8642040B2, “Methods for promoting myelination, neuronal survival and oligodendrocyte differentiation via administration of Sp35 or TrkA antagonists” (Biogen Idec MA Inc., priority 2006, dated 2014)
